Laboratory results taken from patent US8138179B2, “Spiro-imidazo compounds” (Novartis AG, priority 2006, dated 2012).

What was measured:
plasma corticosterone = test: In vivo suppression of plasma corticosterone levels in ACTH-stimulated rats; design: species or system Wistar rats; conditions: 4 mg/kg p.o.; plasma level 2 h after administration relative to 1 h prior to administration
Procedure: (§1) The aldosterone- and corticosterone-suppressing activity of herein described compounds may be assessed with the following in vivo protocol.
(§2) Adult male Wistar rats weighing between 250 and 350 grams are kept under the usual 12 hour light and 12 hour dark conditions at a temperature of 23° C.±2° C. On the first day of the experiment, the animals receive a subcutaneous injection of a depot ACTH product in a dose of 1.0 mg/kg weight (SYNACTHEN-Depot, Novartis, Basel, CH) 16 hours prior to the administration of a test compound. […] An alternative method to stimulate aldosterone secretion consists in subjecting rats to a low salt diet for 48 hours and applying the diuretic furosemide at 10 mg/kg by subcutaneous or intraperitoneal administration 16 hours, respectively 2 hours prior to the start of the experiment. […] The aldosterone and corticosterone concentrations of the plasma samples can be determined with a radioimmunoassay as described above for the in vitro test systems.
(§3) The selective suppression of plasma steroid levels as for instance aldosterone in comparison to corticosterone may serve as a measure for in vivo bioavailability and pharmacodynamic enzyme inhibitory activity of the herein described compounds. The evaluation of the data may occur relative to the application of vehicle or quantitatively by determination of the area under the curve (AUC). […]

plasma aldosterone = test: In vivo suppression of plasma aldosterone levels in ACTH-stimulated rats; design: species or system Wistar rats; conditions: 4 mg/kg p.o.; plasma level 2 h after administration relative to 1 h prior to administration
Procedure: as §1, §2, §3

## N#Cc1ccc2c(c1)C1(CCC2)OCCn2cncc21 (centres unmarked) [Example 10, spiro-[(5,6-Dihydro-8H-imidazo[5,1-c][1,4]oxazine)-8,8′-(5′,6′,7′,8′-tetrahydronaphthalene-2′-carbonitrile)]]
Plasma corticosterone
  Corticosterone levels (% change at 2 h): −14.5%
Plasma aldosterone
  Aldosterone levels (% change at 2 h): −81.7%
